# Values quoted from earlier work, collected in patent US10172810B2 (priority 2003, dated 2019).
# Details: pH 6.8
smiles,measurement,value
CN1CCCC1c1cccnc1 (stereo not shown) [nicotine],nicotine in the free base form,about 10%
